Results published in the Deep4Chem optical property database.
Values joined by “and” are separate entries in the source; they are usually repeats but may differ in a detail not shown here. Equal values may be shown once.

Assay: solvent given as SMILES
Conditions: in C1CCCCC1

| SMILES | emission maximum [nm] |
| --- | --- |
| c1csc(-c2cnc(-c3cccs3)c3nonc23)c1 | 567 |
| Cc1cc2c(o1)c(C)cc1ccc(=O)oc12 | 360 |
| CC(C)(C)c1ccc2oc(-c3ccc(-c4nc5cc(C(C)(C)C)ccc5o4)s3)nc2c1 | 426 |

Same assay, conditions: in C1CCOC1

| SMILES | emission maximum [nm] |
| --- | --- |
| C(=C\c1cnccn1)/c1ccc(N(c2ccccc2)c2ccccc2)cc1 | 487 |
| CN(C)c1ccc(C2=[N+]3C(=Nc4c(-c5ccc(O)cc5)cc(-c5ccc(N(C)C)cc5)n4[B-]3(F)F)C(c3ccc(O)cc3)=C2)cc1 | 815 |
| COc1ccc(-c2nc3c(c4c2-c2ccc(C#N)cc2CC4)-c2ccc(C#N)cc2CC3)cc1 | 426 |
| O=C1CCCc2c1[nH]c1cc3c(cc21)OCO3 | 403.84 |
| CCOC(=O)COc1ccc(/C=C/c2c(CC)c(C)c3n2[B-](F)(F)[N+]2=C(c4[nH]c(C)c(CC)c4C)c4ccccc4C2=C3C)cc1 | 709 |
| CN(C)c1ccc(/C=C2\CC/C(=C\c3ccc(C#N)cc3)C2=O)cc1 | 651 |
| c1ccc(-c2nc(-c3ccccc3)nc(-c3ccc(-n4c5ccccc5c5c6c(ccc54)C4(c5ccccc5-c5ccccc54)c4ccccc4-6)cc3)n2)cc1 | 488.19 |
| C#Cn1c(-c2cc(-c3nc4ccccc4n3C#C)cc(-c3nc4ccccc4n3C#C)c2)nc2ccccc21 | 386.5 |
| N#Cc1c(N2CCCCC2)cc(-c2cccs2)c2c1CCc1ccccc1-2 | 474 |
| CC(C)(C)c1ccc2oc(-c3ccc(-c4nc5cc(C(C)(C)C)ccc5o4)s3)nc2c1 | 432 |

Same assay, conditions: in C1COCCO1

| SMILES | emission maximum [nm] |
| --- | --- |
| Cc1cc2c(o1)c(C)cc1ccc(=O)oc12 | 380 |
| c1ccc(-c2nc(-c3ccccc3)nc(-c3ccc(-n4c5ccccc5c5c6c(ccc54)C4(c5ccccc5-c5ccccc54)c4ccccc4-6)cc3)n2)cc1 | 453.7 |

Same assay, conditions: in CC1CCCCC1

| SMILES | emission maximum [nm] |
| --- | --- |
| CC(C)(C)c1ccc2oc(-c3ccc(-c4nc5cc(C(C)(C)C)ccc5o4)s3)nc2c1 | 426 |

Same assay, conditions: in CC#N

| SMILES | emission maximum |
| --- | --- |
| COc1ccc(-c2nc3c(c4c2-c2ccc(C#N)cc2CC4)-c2ccc(C#N)cc2CC3)cc1 | 430 nm |
| O=C1CCCc2c1[nH]c1cc3c(cc21)OCO3 | 399.42 nm |
| CCOC(=O)COc1ccc(/C=C/c2c(CC)c(C)c3n2[B-](F)(F)[N+]2=C(c4[nH]c(C)c(CC)c4C)c4ccccc4C2=C3C)cc1 | 707 nm |
| CN(C)c1ccc(/C=C2\CC/C(=C\c3ccc(C#N)cc3)C2=O)cc1 | 721 nm |
| COc1ccc(/C=C2\OC(=O)c3cc(N)ccc32)cc1 | 450.25 nm |
| CC(C)(C)c1ccc2oc(-c3ccc(-c4nc5cc(C(C)(C)C)ccc5o4)s3)nc2c1 | 432 nm |
| CCNc1cc2oc(=O)cc(C(F)(F)F)c2cc1C | 481 nm |

The next lines start with the values.

| emission maximum | SMILES |
| --- | --- |
| 480 nm | N#C/C(=C\c1ccc(Cl)cc1)c1nc(-c2ccccc2)cs1 |
| 535 nm | C(=C\c1cnccn1)/c1ccc(N(c2ccccc2)c2ccccc2)cc1 |
| 530 nm | CCCCCCN(CCCCCC)c1ccc(C#Cc2ccc(C#N)cc2)cc1 |
| 481 nm | Cc1cc(O)c(C(=O)/C=C/c2ccccc2Cl)c(=O)o1 |
| 435 nm | Cc1cc2c(o1)c(C)cc1ccc(=O)oc12 |
| 609 nm | CCN(CC)c1ccc(/C=N/C(C#N)=C(C#N)/N=C/c2ccc(N(CC)CC)cc2O)c(O)c1 |
| 440 nm and 417 nm | Cn1c(-c2ccc(-c3nc(-c4ccccc4)c(-c4ccccc4)n3C)cc2)nc(-c2ccccc2)c1-c1ccccc1 |
| 583 nm | CCN(CC)c1ccc(/N=N/c2nc3ccc(OC)cc3s2)cc1 |

Same assay, conditions: in CC(C)=O

| SMILES | emission maximum [nm] |
| --- | --- |
| c1csc(-c2cnc(-c3cccs3)c3nonc23)c1 | 612 |
| CN(C)c1ccc(/C=C2\CC/C(=C\c3ccc(C#N)cc3)C2=O)cc1 | 718 |
| COc1ccc(/C=C2\OC(=O)c3cc(N)ccc32)cc1 | 446.03 |

Same assay, conditions: in CC(C)CO

| SMILES | emission maximum [nm] |
| --- | --- |
| COc1ccc(/C=C2\OC(=O)c3cc(N)ccc32)cc1 | 474.83 |

Same assay, conditions: in CC(C)O

| SMILES | emission maximum [nm] |
| --- | --- |
| O=C([O-])c1c(Cl)c(Cl)c(Cl)c(Cl)c1-c1c2cc(I)c(=O)c(I)c-2oc2c(I)c([O-])c(I)cc12 | 576 |
| CN(C)c1ccc(/C=C2\CC/C(=C\c3ccc(C#N)cc3)C2=O)cc1 | 647 |
| COc1ccc(/C=C2\OC(=O)c3cc(N)ccc32)cc1 | 481.23 |

Same assay, conditions: in CCCCCC

| SMILES | emission maximum [nm] |
| --- | --- |
| c1csc(-c2cnc(-c3cccs3)c3nonc23)c1 | 564 |
| COc1ccc(-c2nc3c(c4c2-c2ccc(C#N)cc2CC4)-c2ccc(C#N)cc2CC3)cc1 | 420 |
| CCOC(=O)COc1ccc(/C=C/c2c(CC)c(C)c3n2[B-](F)(F)[N+]2=C(c4[nH]c(C)c(CC)c4C)c4ccccc4C2=C3C)cc1 | 698 |

Same assay, conditions: in CCCCCCC

| emission maximum [nm] | SMILES |
| --- | --- |
| 433 | C(=C\c1cnccn1)/c1ccc(N(c2ccccc2)c2ccccc2)cc1 |

Same assay, conditions: in CCCCCCO

| emission maximum [nm] | SMILES |
| --- | --- |
| 430.73 | O=C1CCCc2c1[nH]c1cc3c(cc21)OCO3 |

Same assay, conditions: in CCCCO

| SMILES | emission maximum [nm] |
| --- | --- |
| CN(C)c1ccc(/C=C2\CC/C(=C\c3ccc(C#N)cc3)C2=O)cc1 | 648 |
| CC(C)(C)c1ccc2oc(-c3ccc(-c4nc5cc(C(C)(C)C)ccc5o4)s3)nc2c1 | 434 |

Same assay, conditions: in CCCCOC(C)=O

| SMILES | emission maximum [nm] |
| --- | --- |
| CN(C)c1ccc(/C=C2\CC/C(=C\c3ccc(C#N)cc3)C2=O)cc1 | 631 |

Same assay, conditions: in CCCO

| SMILES | emission maximum [nm] |
| --- | --- |
| c1csc(-c2cnc(-c3cccs3)c3nonc23)c1 | 611 |
| CN(C)c1ccc(/C=C2\CC/C(=C\c3ccc(C#N)cc3)C2=O)cc1 | 644 |
| COc1ccc(/C=C2\OC(=O)c3cc(N)ccc32)cc1 | 482.63 |

Same assay, conditions: in CCO

| SMILES | emission maximum [nm] |
| --- | --- |
| c1csc(-c2cnc(-c3cccs3)c3nonc23)c1 | 614 |
| O=C([O-])c1c(Cl)c(Cl)c(Cl)c(Cl)c1-c1c2cc(I)c(=O)c(I)c-2oc2c(I)c([O-])c(I)cc12 | 573 |
| Cc1c(COC(=O)c2ccccc2Cl)n2c(OCC(=O)c3ccccc3Cl)c(C)c(=O)n2c1=O | 459 |
| O=C1CCCc2c1[nH]c1cc3c(cc21)OCO3 | 437.63 |
| Cc1cc2c(o1)c(C)cc1ccc(=O)oc12 | 460 |
| CN(C)c1ccc(/C=C2\CC/C(=C\c3ccc(C#N)cc3)C2=O)cc1 | 659 |
| COc1ccc(/C=C2\OC(=O)c3cc(N)ccc32)cc1 | 485.44 |
| C=C(C)C(CN1C(=O)c2cccc3c2c(cc2nc(C)oc23)C1=O)OO (centres undefined) | 412 |
| CC(C)(C)c1ccc2oc(-c3ccc(-c4nc5cc(C(C)(C)C)ccc5o4)s3)nc2c1 | 434 |

Same assay, conditions: in CCOC(=O)c1ccccc1

| SMILES | emission maximum [nm] |
| --- | --- |
| CN(C)c1ccc(/C=C2\CC/C(=C\c3ccc(C#N)cc3)C2=O)cc1 | 641 |

Same assay, conditions: in CCOC(C)=O

| SMILES | emission maximum [nm] |
| --- | --- |
| COc1ccc(-c2nc3c(c4c2-c2ccc(C#N)cc2CC4)-c2ccc(C#N)cc2CC3)cc1 | 423 |
| O=C1CCCc2c1[nH]c1cc3c(cc21)OCO3 | 388.9 |
| CN(C)c1ccc(/C=C2\CC/C(=C\c3ccc(C#N)cc3)C2=O)cc1 | 643 |
| COc1ccc(/C=C2\OC(=O)c3cc(N)ccc32)cc1 | 445.04 |

Same assay, conditions: in CCOCC

| SMILES | emission maximum [nm] |
| --- | --- |
| c1csc(-c2cnc(-c3cccs3)c3nonc23)c1 | 587 |
| CN(C)c1ccc(/C=C2\CC/C(=C\c3ccc(C#N)cc3)C2=O)cc1 | 580 |
| COc1ccc(/C=C2\OC(=O)c3cc(N)ccc32)cc1 | 443.26 |

Same assay, conditions: in CN(C)C=O

| SMILES | emission maximum [nm] |
| --- | --- |
| CCN(CC)c1ccc(/C=N/C(C#N)=C(C#N)/N=C/c2ccc(N(CC)CC)cc2O)c(O)c1 | 618 |
| CN(C)c1ccc(/C=C2\CC/C(=C\c3ccc(C#N)cc3)C2=O)cc1 | 740 |
| c1ccc(-c2nc(-c3ccccc3)nc(-c3ccc(-n4c5ccccc5c5c6c(ccc54)C4(c5ccccc5-c5ccccc54)c4ccccc4-6)cc3)n2)cc1 | 525.23 |
| CC(C)(C)c1ccc2oc(-c3ccc(-c4nc5cc(C(C)(C)C)ccc5o4)s3)nc2c1 | 434 |

Same assay, conditions: in CO

| emission maximum [nm] | SMILES |
| --- | --- |
| 399 | COc1ccc(-c2nc(-c3cccc(OC)c3)[nH]c2-c2ccc(OC)cc2)cc1 |
| 776 | CC1(C)C(/C=C/C=C/C=C/C=C2/N(S(=O)(=O)[O-])c3ccc(S(=O)(=O)[O-])cc3C2(C)C)=[N+](S(=O)(=O)[O-])c2ccc(S(=O)(=O)[O-])cc21 |
| 571 | O=C([O-])c1c(Cl)c(Cl)c(Cl)c(Cl)c1-c1c2cc(I)c(=O)c(I)c-2oc2c(I)c([O-])c(I)cc12 |

| SMILES | emission maximum [nm] |
| --- | --- |
| c1csc(-c2cnc(-c3cccs3)c3nonc23)c1 | 616 |
